These results are taken from PMC7891710, “The narrow-spectrum anthelmintic oxantel is a potent agonist of a novel acetylcholine receptor subtype in whipworms” (PLoS Pathogens, 2021).

The target of assay [1] is T1, Tsu-ACR-16-like receptor (O-AChR) (Trichuris suis, UniProt A0A890W0I7).
T1 construct: full-length Tsu-ACR-16-like (GenBank MT386096), homomeric channel co-expressed with Asu-RIC-3 in Xenopus laevis oocytes
Description: two-electrode voltage clamp in Xenopus oocytes, agonist dose-response. The assay is classed as cell-based.

Assay [2] concerns the target T1, Tsu-ACR-16-like receptor (O-AChR). Description: two-electrode voltage clamp in Xenopus oocytes, agonist dose-response (partial, Imax […]). In kind it is cell-based.

T1 sequence (A0A890W0I7 entry or part of it): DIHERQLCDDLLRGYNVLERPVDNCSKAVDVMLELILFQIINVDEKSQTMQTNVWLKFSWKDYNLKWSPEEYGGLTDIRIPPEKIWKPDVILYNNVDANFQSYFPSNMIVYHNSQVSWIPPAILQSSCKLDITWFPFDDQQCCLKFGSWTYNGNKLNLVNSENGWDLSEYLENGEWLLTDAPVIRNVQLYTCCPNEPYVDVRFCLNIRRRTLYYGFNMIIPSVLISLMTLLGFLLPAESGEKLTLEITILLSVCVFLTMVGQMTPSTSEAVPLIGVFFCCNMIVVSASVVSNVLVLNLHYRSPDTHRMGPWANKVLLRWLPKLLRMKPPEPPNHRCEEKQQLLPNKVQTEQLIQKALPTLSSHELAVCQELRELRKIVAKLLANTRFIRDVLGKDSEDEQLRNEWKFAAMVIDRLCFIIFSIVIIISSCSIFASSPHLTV

For the compound `CC(=O)OCC[N+](C)(C)C` [ACh, acetylcholine], in assay [1], the EC50 (commonly the concentration needed to bring the measured effect to its halfway point) amounted to 14.5 µM.
The same measure, in the same setting: the figure for `CN1CCCN=C1/C=C/c1cccc(O)c1` [oxa, oxantel] is 9.49 µM.
In assay [2], `CN1CCCN=C1/C=C/c1cccs1` [pyr, pyrantel] displayed an EC50 of 148 µM.
